Data: PubChem BioAssay (NCI)
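How tested: cells in 96-well plates exposed to compound for 48 hours at five concentrations. TGI is the concentration that stops growth completely.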

How the values were obtained:
Test in all cases: NCI tumour cell line growth inhibition, 48 h
[1] = system: A498 renal
[2] = system: A549 NSCLC
[3] = system: CAKI-1 renal
[4] = system: CCRF-CEM leukemia
[5] = system: COLO 205 colon
[6] = system: DLD-1 colon
[7] = system: DMS 114 small cell lung
[8] = system: DMS 273 small cell lung
[9] = system: EKVX NSCLC
[10] = system: HCC-2998 colon
[11] = system: HCT-116 colon
[12] = system: HCT-15 colon
[13] = system: HL-60(TB) leukemia
[14] = system: HOP-18 NSCLC
[15] = system: HOP-62 NSCLC
[16] = system: HOP-92 NSCLC
[17] = system: HT29 colon
[18] = system: IGROV1 ovarian
[19] = system: K-562 leukemia
[20] = system: KM12 colon
[21] = system: KM20L2 colon
[22] = system: LOX IMVI melanoma
[23] = system: M19-MEL melanoma
[24] = system: MALME-3M melanoma
[25] = system: MCF7 breast
[26] = system: MOLT-4 leukemia
[27] = system: NCI-H226 lung
[28] = system: NCI-H23 lung
[29] = system: NCI-H460 lung
[30] = system: NCI-H522 lung
[31] = system: NCI/ADR-RES ovarian
[32] = system: OVCAR-3 ovarian
[33] = system: OVCAR-4 ovarian
[34] = system: OVCAR-5 ovarian
[35] = system: OVCAR-8 ovarian
[36] = system: P388 leukemia
[37] = system: P388/ADR leukemia
[38] = system: RPMI-8226 leukemia
[39] = system: RXF 393 renal
[40] = system: SF-268 CNS
[41] = system: SF-295 CNS
[42] = system: SF-539 CNS
[43] = system: SK-MEL-2 melanoma
[44] = system: SK-MEL-28 melanoma
[45] = system: SK-MEL-5 melanoma
[46] = system: SK-OV-3 ovarian
[47] = system: SN12C renal
[48] = system: SN12K1 renal
[49] = system: SNB-19 CNS
[50] = system: SNB-75 CNS
[51] = system: SNB-78 CNS
[52] = system: SW-620 colon
[53] = system: U251 CNS
[54] = system: UACC-257 melanoma
[55] = system: UACC-62 melanoma
[56] = system: UO-31 renal
[57] = system: XF 498 CNS

Compound: C=CCCCCCCCCC(=O)O
- TGI [1]: 1.06 µM
- TGI [2]: 214 µM
- TGI [3]: 214 µM
- TGI [4]: 292 µM
- TGI [5]: 197 µM
- TGI [6]: 163 µM
- TGI [7]: 389 µM
- TGI [8]: 289 µM
- TGI [9]: 255 µM
- TGI [10]: 202 µM
- TGI [11]: 225 µM
- TGI [12]: 192 µM
- TGI [13]: 231 µM
- TGI [14]: 226 µM
- TGI [15]: 168 µM
- TGI [16]: 199 µM
- TGI [17]: 227 µM
- TGI [18]: 287 µM
- TGI [19]: 426 µM
- TGI [20]: 107 µM
- TGI [21]: 268 µM
- TGI [22]: 259 µM
- TGI [23]: 449 µM
- TGI [24]: 302 µM
- TGI [25]: 452 µM
- TGI [26]: 265 µM
- TGI [27]: 394 µM
- TGI [28]: 274 µM
- TGI [29]: 191 µM
- TGI [30]: 209 µM
- TGI [31]: 558 µM
- TGI [32]: 176 µM
- TGI [33]: 341 µM
- TGI [34]: 351 µM
- TGI [35]: 283 µM
- TGI [36]: 379 µM
- TGI [37]: 264 µM
- TGI [38]: 352 µM
- TGI [39]: 207 µM
- TGI [40]: 254 µM
- TGI [41]: 200 µM
- TGI [42]: 212 µM
- TGI [43]: 152 µM
- TGI [44]: 322 µM
- TGI [45]: 183 µM
- TGI [46]: 294 µM
- TGI [47]: 339 µM
- TGI [48]: 209 µM
- TGI [49]: 362 µM
- TGI [50]: 468 µM
- TGI [51]: 607 µM
- TGI [52]: 260 µM
- TGI [53]: 242 µM
- TGI [54]: 492 µM
- TGI [55]: 190 µM
- TGI [56]: 162 µM
- TGI [57]: 30.9 µM
